# Like-named read-outs stand apart in the source and are kept apart here.
# Assays:
# AGS cell line = experiment: MTT cell viability assay; format: cell-based, human; conditions: Homo sapiens, AGS; MTT method, 48 h
# Procedure: (§1) SUNE1 (nasopharyngeal carcinoma), AGS (gastric adenocarcinoma), HeLa (cervix adenocarcinoma), HepG2 (hepatocellular carcinoma), U-87 MG (human glioblastoma cell), U2OS (osteosarcoma), MCF-7 (breast adenocarcinoma), MDA-MB-231 (breast adenocarcinoma), HCT116 (colorectal carcinoma), SW480 (colorectal adenocarcinoma), NCI-H460 (large cell lung carcinoma), NCI-H1650 (adenocarcinoma lung carcinoma), HCC827 (adenocarcinoma lung carcinoma), A549 (lung carcinoma), and CCD-19Lu (human lung fibroblast normal cell) were all obtained from American Type Culture Collection (ATCC, Manassas, VA, USA). Minimum Essential Media (MEM, Gibco®, ThermoFisher Scientific), Dulbecco's Modified Eagle Medium (DMEM, Gibco®, ThermoFisher Scientific), and RPMI-1640 Medium (Gibco®, ThermoFisher Scientific) supplemented with 10% Fetal Bovine Serum (Gibco®, ThermoFisher Scientific), and 100 U/mL penicillin-streptomycin (Gibco™, ThermoFisher Scientific) were used for cell culture. Cells were placed into an incubator with 5% CO2 that temperature was set at 37° C. For subculturing cells, 0.05% Trypsin-EDTA (Gibco®) was used for detaching and a subcultivation ratio of 1:5 was used.
# (§2) The cell viability assay was performed by a typical MTT assay. Briefly, 5*10^3 cells were seeded in the 96-well flat bottom plate and allowed to attach overnight. After drug treatment with a serial dilution from 100 μM for 48 h, 10 μL of MTT solution (5 mg/ml prepared in PBS, filtered) was added into each well and incubate for 4 h at 37° C. The formed formazan was then dissolved with SDS solution (10% SDS in 10 mM HCl) and followed the determination of absorbance at 590 nm by a microplate reader. The change in cell viability was then calculated for each drug concentration, then normalized to control. Dose response curves from each assay were fit to a Boltzmann sigmoidal function (GraphPad Prism8, version8.0.0). The cytotoxicity of AGB and its derivatives was determined by the calculation of IC50 value (half maximal inhibitory concentration) from fitted curves, which was the concentration of drug induced 50% cell viability.
# H460 cell line = experiment: MTT cell viability assay; format: cell-based, human; conditions: Homo sapiens, NCI-H460
# Procedure: as §1, §2
# HeLa cell line = experiment: MTT cell viability assay; format: cell-based, human; conditions: Homo sapiens, HeLa; MTT method, 48 h; read-out: IC50 HeLa cell line
# Procedure: as §1, §2
# MDA-MB-231 cell line = experiment: MTT cell viability assay; format: cell-based, human; conditions: Homo sapiens, MDA-MB-231; MTT method, 48 h
# Procedure: as §1, §2
# [1] = Hematological examination in MTD test; format: in vivo; conditions: 12.8 mg/kg, day 14
# Procedure: The MTD test in this study was done in collaboration with Tianjin Institute of Pharmaceutical Research (TIPR). […] A total of 80 mice were randomly assigned into four groups (10 male and 10 female mice in each group) in this study. Four groups included 16.0 mg/kg of AGB group, 12.8 mg/kg of AGB group, vehicle control group (10% DMSO+0.8% Tween-80 in normal saline), and the blank control group (normal saline).
# Then, the body weights of surviving animals were measured on the 1st, 3rd, 7th and 14th days, respectively. At the end of experiment, the hematology, blood biochemistry, anatomical examination, and histopathology examination were performed in both vehicle control group and the MTD group (12.8 mg/kg). The data were presented as the mean±standard deviation.
# [2] = test system: mitochondria of NCI-H460 cells; experiment: Mitochondrial morphology and fusion/fission proteins (MitoTracker, Western Blot, immunofluorescence, TEM); format: cell-based, human
# Text: Mitochondria are highly dynamic organelles that frequently fuse and fragment, with the ability to change size, shape, and position. The dynamic nature of mitochondria is important for mitochondrial inheritance and for the maintenance of mitochondrial functions. When the balance between fission and fusion is disrupted, as result of a relative increase or decrease in either process, the overall mitochondrial morphology is changed markedly.
# Several proteins that control mitochondrial fusion and fission have been identified, including mitofusins and OPA1 for fusion, and Mff and DRP1 for fission. The effects of AGB on the expression of mitochondrial fusion proteins (Mfn1 and Mfn2) and fission proteins (DRP1 and Mff) were studied. […] DRP1 phosphorylation at residue S637 by protein kinase A inhibits mitochondrial fission whereas dephosphorylation at S637 increases mitochondrial recruitment of DRP1 and promotes mitochondrial fission. The localization of DRP1 was examined by the immunofluorescence staining.
# OPA1 is another protein localized at the inner mitochondrial membrane and is involved in different function like regulation of mitochondrial morphology dynamics, maintenance of respiratory chain, and control of ATP synthesis. The decrease of L-OPA1 causes inhibition of mitochondrial fusion, whereas the accumulation of S-OPA1 facilitates mitochondrial fission. […] OPA1 plays a role in maintaining the mitochondrial cristae structure. OPA1 fragmentation leads to a disorganization of the structure of the mitochondrial inner membrane. The ultrastructure of mitochondria was observed under transmission electron microscopy (TEM) with the treatment of AGB or vehicle for 16 h.
smiles,measurement,setting,value
"CCCC(=O)c1c(O)c(Cc2c(O)c(Cc3c(O)c(C)c(OC)c(C(=O)CCC)c3O)c(O)c(C(=O)[C@@H](C)CC)c2O)c(O)c(C)c1OC [AGB, Agrimol B]",IC50,AGS cell line,2650 nM
same,IC50,"H460 cell line; MTT method, 48 h, read-out: IC50 H460 cell line",1850 nM
same,IC50,"H460 cell line; for 48 h, cell line not given, read-out: IC50 value of AGB",2300 nM
same,IC50,HeLa cell line,810 nM
same,IC50,MDA-MB-231 cell line,2160 nM
same,E (eosinophils),[1],0.29 ± 0.11 ×10^9/L
same,E(%),[1],5.48 ± 1.64%
same,HCT,[1],47.54 ± 2.21%
same,HGB,[1],138.20 ± 9.38 g/L
same,L (lymphocytes),[1],4.22 ± 1.32 ×10^9/L
same,L(%),[1],77.53 ± 2.05%
same,M (monocytes),[1],0.09 ± 0.03 ×10^9/L
same,M(%),[1],1.64 ± 0.46%
same,MCH,[1],15.20 ± 0.97 pg
same,MCHC,[1],291.00 ± 20.17 g/L
same,MCV,[1],52.25 ± 2.16 fL
same,N (neutrophils),[1],0.78 ± 0.28 ×10^9/L
same,N(%),[1],14.24 ± 2.15%
same,PLT,[1],1733.80 ± 371.53 ×10^9/L
same,RBC,[1],9.11 ± 0.45 ×10^12/L
same,Ret,[1],0.81 ± 0.09 ×10^12/L
same,Ret(%),[1],8.83 ± 0.74%
same,WBC,[1],5.44 ± 1.66 ×10^9/L
same,morphology of mitochondria (MitoTracker Green),"[2]; 4 μM AGB, 0-16 h",gradually changed into significant punctuated structures
same,ultrastructure of mitochondria (TEM),[2]; 16 h treatment,circular vesicles of reduced diameter predominated
same,expression of DRP1 and Mff,[2]; Western Blot,did not alter
same,phosphor-DRP1 (Ser637),[2]; Western Blot,significant decrease
same,OPA1 cleavage from L-OPA1 into S-OPA1,"[2]; Western Blot, dose and time dependent",promoted OPA1 cleavage
same,expression of Mfn1 and Mfn2,"[2]; Western Blot, dose-dependent",slightly decreased
same,translocation of DRP1 from cytoplasm into mitochondria,"[2]; immunostaining, mito-RFP-transfected cells",significantly promoted

# Source: patent US20250162973A1, “METHODS OF SYNTHESIS AND USES OF AGRIMOL COMPOUNDS” (Versitech Limited, priority 2022, published 2025)
